Marks after values point to notes of the source that are not given here.
Legend:
peritoneal macrophages = test: In vivo macrophage activation (peritoneal macrophages from treated mice, cytotoxicity against P815 cells); parameters: species or system BALB/c mice
Experimental: In another procedure, peritoneal macrophages were harvested after 3, 5, or 10 days from composition- treated mice by peritoneal lavage and purified by adherence on plastic. Approximately 4 x 10^5 macrophages in 16-mm wells were overlaid with 4 x 10^4 P815 cells contained in 2 ml of Roswell Park Memorial Institute.1640 Medium supplemented with 20 percent fetal calf serum. All cultures were maintained in a humidified, 5-percent COZ-in-air incubator at 37°C., and cytotoxicity was assessed at 48 hours on the basis of viable cell counts in a hemocytometer. Triplicate cultures were maintained for each group; the mean cell count and standard error (S.E.) were calculated. […] The ratio of macrophages to target cells was approximately 10:1 at the beginning of each experiment. The percentage of growth inhibition of P815 cells due to composition-mediated macrophage activation was calculated by comparison to that of P815 cells grown in the presence of macrophages from buffer- treated animals.

Electrometric titration = format: physicochemical; settings: 66% aqueous dimethylformamide; the glycyl amino group
Candida albicans A26 = test: Protection of mice by pretreatment against lethal Candida albicans infection; format: in vivo, CD1 mice
Experimental: In this test CD1 mice weighing 18-20 g were pretreated intraperitoneally or subcutaneously with test compound at 5, 3, and 1 days before intravenous infection with 5 x 10^6 viable cells of Candida albicans A26. Test compound was solubilized in pyrogen-free water and administered in 0.25 ml of solution. Ten mice were used for each concentration tested. Ten infected mice were treated intraperitoneally or subcutaneously at 5, 3, and 1 days preinfection with 0.25 ml of pyrogen-free water as controls. The immunomodulatory effects of the test compound were studied in X-irradiated mice exposed to 400R 24 hours preinfection, or mice treated intraperitoneally with 50 mg/kg cyclophosphamide 5, 3, and 1 days preinfection. The mice were caged, watered, and fed daily. The number of surviving mice was counted daily. Normal mice surviving 18 days post-infection were given an arbitrary 19-day survival time. X-irradiated or cyclophosphamide-treated mice surviving 12 days post-infection were given an arbitrary 13 day survival time. The average survival time was calculated for each group. Significant differences between treated and untreated groups of mice were determined by "T" test. Compound 1 was devoid of intrinsic in vitro antifungal activity against C. albicans A26 in a standard agar-diffusion test.

murine macrophages = test: In vitro activation of murine macrophages (macrophage-mediated tumor cytotoxicity against P815 cells); format: cell-based; settings: 48 hours
Experimental: In one procedure, the ability of the compounds to activate murine macrophages in vitro was determined. Peritoneal macrophages were exposed to a compound of formula 1, 2, or 3 simultaneously with the addition of target cells. Tumor cytotoxicity of these treated macrophages was determined 48 hours later by trypan blue enumeration. The percentage of growth inhibition of P815 cells due to composition-mediated macrophage activation was calculated by comparison to that of P815 cells grown in the.presence of macrophages exposed to buffer.

L. monocytogenes EDG = test: Standard agar-diffusion test, antibacterial; format: cell-based
From the text: Compound 1 was negative in the Limulus Lysate Test for endotoxin and was devoid of intrinsic in vitro antibacterial activity against L. monocytogenes EDG in a standard agar-diffusion test.

[1] = Cyclophosphamide-Pretreated Mice, dose 25 mg/kg
[2] = Cyclophosphamide-Pretreated Mice, dose 50 mg/kg

With C=C(CP(=O)(O)O)NC(=O)[C@H](CC(C)C)NC(=O)CN [Compound 1, N^2-glycyl-N-(1-methylene-2-phosphonoethyl)leucinamide] the “Percent Macrophage Cytotoxicity at Day” value (peritoneal macrophages; dose 10 mg/kg, Day 0) was 0%, the “Percent Macrophage Cytotoxicity at Day” value (peritoneal macrophages; dose 10 mg/kg, Day 3) was 8% and the “Percent Macrophage Cytotoxicity at Day” value (peritoneal macrophages; dose 10 mg/kg, Day 5) was 20%. For the same compound, the “Percent Macrophage Cytotoxicity at Day” value (peritoneal macrophages; dose 10 mg/kg, Day 10) was 0%, the “Percent Macrophage Cytotoxicity at Day” value (peritoneal macrophages; dose 100 mg/kg, Day 0) was 0% and the “Percent Macrophage Cytotoxicity at Day” value (peritoneal macrophages; dose 100 mg/kg, Day 3) was 43%. For the same compound, the “Percent Macrophage Cytotoxicity at Day” value (peritoneal macrophages; dose 100 mg/kg, Day 5) was 25%, the “Percent Macrophage Cytotoxicity at Day” value (peritoneal macrophages; dose 100 mg/kg, Day 10) was 0% and the pKa (Electrometric titration) was 8.2. The “Average Survival Time” value (Candida albicans A26; [1]) was 6.8 days, the “Percent Increase In Average Survival Time Above Untreated Controls” value (Candida albicans A26; [1]) was 54.5* Percent and the “Average Survival Time” value (Candida albicans A26; [2]) was 6.1 days. The “Percent Increase In Average Survival Time Above Untreated Controls” value (Candida albicans A26; [2]) was 38.6* Percent, the “Average Survival Time” value (Candida albicans A26; Normal Mice, dose 12.5 mg/kg) was 9.1 days and the “Percent Increase In Average Survival Time Above Untreated Controls” value (Candida albicans A26; Normal Mice, dose 12.5 mg/kg) was 68.0* Percent. For the same compound, the “Average Survival Time” value (Candida albicans A26; Normal Mice, dose 50 mg/kg) was 7.1 days, the “Percent Increase In Average Survival Time Above Untreated Controls” value (Candida albicans A26; Normal Mice, dose 50 mg/kg) was 31.5* Percent and the “protecting mice from a lethal Candida albicans A26 infection” value (Candida albicans A26; preinfection treatments at 5, 3, and 1 days, intraperitoneally or subcutaneously) was “significantly effective”. The “Percent Macrophage Cytotoxicity” value (murine macrophages; 1.56 µg/ml, Experiment 2) was 0%, the “Percent Macrophage Cytotoxicity” value (murine macrophages; 3.12 µg/ml, Experiment 1) was 11% and the “Percent Macrophage Cytotoxicity” value (murine macrophages; 3.12 µg/ml, Experiment 2) was 14%. The “Percent Macrophage Cytotoxicity” value (murine macrophages; 6.25 µg/ml, Experiment 1) was 0%, the “Percent Macrophage Cytotoxicity” value (murine macrophages; 6.25 µg/ml, Experiment 2) was 0% and the “Percent Macrophage Cytotoxicity” value (murine macrophages; 12.5 µg/ml, Experiment 1) was 27%. For the same compound, the “Percent Macrophage Cytotoxicity” value (murine macrophages; 12.5 µg/ml, Experiment 2) was 39%, the “Percent Macrophage Cytotoxicity” value (murine macrophages; 25 µg/ml, Experiment 1) was 43% and the “Percent Macrophage Cytotoxicity” value (murine macrophages; 25 µg/ml, Experiment 2) was 32%. The “Percent Macrophage Cytotoxicity” value (murine macrophages; 50 µg/ml, Experiment 1) was 35%, the “Percent Macrophage Cytotoxicity” value (murine macrophages; 50 µg/ml, Experiment 2) was 29% and the “Percent Macrophage Cytotoxicity” value (murine macrophages; 100 µg/ml, Experiment 1) was 53%. For the same compound, the “intrinsic in vitro antibacterial activity” value (L. monocytogenes EDG) was “devoid”.
